Measurements from ChEMBL document CHEMBL1157539, “Thousands of chemical starting points for antimalarial lead identification” (Nature, 2010).

What follows are molecules tested on Plasmodium falciparum (assay: GSK_TCMDC: Inhibition of Plasmodium falciparum 3D7 in whole erythrocytes, using parasite LDH activity as an index of growth.). Conditions: Plasmodium falciparum, 3D7.
Type: functional, organism-based
`COc1ccc2c(=NN=Cc3ccncc3)cc(C)[nH]c2c1` gave an XC50 of 814 nM.
In the case of `CN(CCN)Cc1cccc(-c2ccc(-c3nc4cc(C(F)(F)F)ccc4[nH]3)s2)c1`, the XC50 is reported as 997 nM.
For `Cc1cccc(C)c1OC(=O)CSc1nnc(-c2ccccc2O)o1`, the XC50 was 884 nM.
`COc1ccc(CCc2ccc(-c3c(C)[nH]c(C)c(Cl)c3=O)cc2)cc1` was tested, and the XC50 was 15.2 nM.
With `CCNCc1ccc(-c2cc3ncnc(Nc4ccc(OCc5cccc(F)c5)c(Cl)c4)c3s2)[nH]1` the XC50 was 109 nM.
`Fc1cccc(Nc2nc(NCc3ccc(Cl)c(Cl)c3)nc(Nc3cccc(F)c3)n2)c1` gave an XC50 of 748 nM.
`Cc1ccc(Oc2ccc(CNc3nc(Nc4cccc(F)c4)nc(Nc4cccc(F)c4)n3)cc2)cc1` was tested, and the XC50 was 1210 nM.
Work on `Cc1cc(N(CCN2CCCCC2)CCN2CCCCC2)nc(Nc2ccc(Cl)cc2)n1` yielded an XC50 of 269 nM.
`CC[C@H]1CN2CC[C@H]1C[C@H]2[C@H](O)c1cc(-c2ccc(OC(F)(F)F)cc2)nc2ccc(OC)cc12` was tested, and the XC50 was 51.1 nM.
With `CN(C)CCCNCc1ccc(-c2ccc(C(F)(F)F)cc2)cc1` the XC50 was 873 nM.
`O=C(N[C@@H](CC1CCCCC1)C(=O)NCCN1CCCCC1)c1ccc(O)c(-c2cccc(C(F)(F)F)c2)c1` showed an XC50 of 831 nM.
In the case of `COc1ccc(C(=O)C2CCN(CCCCNC(=O)c3ccc(NC(=O)c4ccc(Cl)cc4)cc3)CC2)c(OC)c1`, the XC50 is reported as 772 nM.
For `CC(C)(C)c1ccc2[nH]c(-c3ccc(C(=O)NCc4cccc(C(F)(F)F)c4)cc3)nc2c1`, the XC50 was 733 nM.
For `CCCCCC(C)C(C)c1cc(O)c2c(c1)OC(C)(C)c1cnccc1-2` (stereo not given), the XC50 was 770 nM.
Work on `CN(C)c1ccc(CN2CCC(NC(=O)c3ccc(-c4cccc(C(F)(F)F)c4)s3)CC2)cc1` yielded an XC50 of 1150 nM.
With `CC(C)(C)c1ccc(NC(=O)c2cccc(CN3CCCN(Cc4cccc(C#N)c4)CC3)c2)cc1` the XC50 was 755 nM.
`CCN(CC)CCn1c2ccccc2c2ccc(C(=O)Nc3ccc4sc(C)nc4c3)cc21` was tested, and the XC50 was 1060 nM.
Molecule `CCCCCc1ccc(N2C(N)=NC(N)=NC2(C)C)cc1` has an XC50 of 131 nM.
With `CCCNc1ccc2nccc(CCN3CCC(NCc4ccc5c(n4)NC(=O)CS5)CC3)c2n1` the XC50 was 720 nM.
`CS(=O)(=O)c1ccc(-c2cncc(Nc3cccc([N+](=O)[O-])c3)c2)cc1` was tested, and the XC50 was 773 nM.
In the case of `CC(=O)Oc1cc(OCc2ccccc2)c(OC(C)=O)c(OCc2ccccc2)c1`, the XC50 is reported as 407 nM.
`CCCCCCCC1CCN(C[C@H](O)c2ccnc3ccc(OC)cc23)CC1` gave an XC50 of 956 nM.
`Cc1cc(N)nc2ccc(CNCCc3ccccc3Br)cc12` showed an XC50 of 120 nM.
`COc1ccc2nccc([C@@H](O)CN3CCC(NC(=O)c4cc5c(F)cc(F)cc5[nH]4)CC3)c2n1` was tested, and the XC50 was 1390 nM.
Molecule `CN(Cc1ccc(-c2ccc(C(F)(F)F)cc2)cc1)C(=O)Cn1c(CCc2cccc(F)c2F)cc(=O)c2ccc(OCCCN3CCCCC3)cc21` has an XC50 of 706 nM.
Work on `CN1CCC(N2CCN(Cc3ccc(-c4ccc(-c5nc6ccccc6[nH]5)s4)cc3)CC2)CC1` yielded an XC50 of 140 nM.
Work on `Cc1cccc2[nH]cc(C3CCN(CC4CCC(NC(=O)/C=C/c5ccc(Cl)c(Cl)c5)CC4)CC3)c12` (stereo not given) yielded an XC50 of 163 nM.
`COc1cccc(-c2ccc3c(-c4cccc(S(C)(=O)=O)c4)cnc(N)c3c2)c1` gave an XC50 of 874 nM.
With `CN(c1cc(NC(=O)c2ccccc2)ccn1)C1CCN(Cc2cccc(F)c2)CC1` the XC50 was 738 nM.
Molecule `CCc1cc2c(O)c([N+](=O)[O-])c(=O)oc2cc1OCCCCCOc1cc2oc(=O)c([N+](=O)[O-])c(O)c2cc1CC` has an XC50 of 257 nM.
In the case of `c1ccc(CCNCc2ccc(-c3ccc(CNC4CCN(Cc5ccccc5)CC4)cc3)nc2)cc1`, the XC50 is reported as 446 nM.
Molecule `CC1(C)NC(N)=NC(=N)N1OCCCCOc1ccc(Cl)cc1C1CCCCC1` has an XC50 of 3.2 nM.
`CCC(C(=O)Nc1cc(=O)[nH]c2nc(-c3ccco3)nn12)c1ccccc1` (stereo not given) showed an XC50 of 844 nM.
Work on `CCn1c(-c2nc(-c3ccc4c(c3)OCO4)cnc2N)nc2cnccc21` yielded an XC50 of 429 nM.
`CC(=O)Nc1nc(C(=O)Nc2cccc(-c3ccc(-c4nc5cccc(C)c5[nH]4)s3)c2)cs1` was tested, and the XC50 was 222 nM.
Molecule `Cc1cccc(-c2cc3cc(Nc4ccnc5cc(-c6nccs6)ccc45)ccc3[nH]2)c1` has an XC50 of 174 nM.
For `Cc1ccc2c(C3=CCN(CCCCC4(C)C(=O)Nc5ccccc54)CC3)c(C)[nH]c2c1` (stereo not given), the XC50 was 374 nM.
Molecule `CN(C)c1ccc(-c2ccc(C(=O)NC3CCN(Cc4ccccc4F)CC3)s2)cc1` has an XC50 of 1400 nM.
`O=C(NCCNc1nc(NCCNC(=O)Nc2ccccc2)c2ccc(=O)n(-c3c(F)cccc3F)c2n1)Nc1ccccc1` was tested, and the XC50 was 170 nM.
In the case of `CC(C)CN1CCC(N(C)c2cc(NC(=O)c3cccc(F)c3)ccn2)CC1`, the XC50 is reported as 848 nM.
Work on `COc1cccc(Nc2nccc(NCC(O)c3cccc(C(F)(F)F)c3)n2)c1` (stereo not given) yielded an XC50 of 702 nM.
`CCN(CC)CCN(CCN(CC)CC)c1ccc(-c2nc3cc(Cl)c(Cl)cc3[nH]2)cc1` showed an XC50 of 785 nM.
Work on `O=C(Nc1cccc(CN2CCCN(Cc3ncc[nH]3)CC2)c1)c1ccc(Cl)c(Cl)c1` yielded an XC50 of 795 nM.
`CC(C)CNCc1ccc(-c2ccccc2CN(C(=O)NCCc2ccccc2)C2CCN(Cc3ccccc3)CC2)cc1` showed an XC50 of 878 nM.
With `CCOC(=O)c1cc(C(=O)NCCCCN2CCC(c3cn(C)c4ccccc34)CC2)ccc1-c1ccc(C(F)(F)F)cc1` the XC50 was 1200 nM.
With `Cc1nc2ccc(NC(=O)c3cc(S(=O)(=O)N(C)C)ccc3Cl)cc2s1` the XC50 was 816 nM.
With `COc1cccc(-c2nn(C)c3sc(C(=O)NCCN4CCN(c5ccccc5F)CC4)cc23)c1` the XC50 was 955 nM.
Work on `Cc1cc(NC(=O)Nc2ccc3ncccc3c2)c2ccccc2n1` yielded an XC50 of 956 nM.
In the case of `COc1ccc2nccc(NC(=O)N3CCC(NCc4cc5ccccc5[nH]4)CC3)c2n1`, the XC50 is reported as 556 nM.
For `CCN1CCN(c2cc(C)c3cc(NC(=O)c4ccc(Br)o4)ccc3n2)CC1`, the XC50 was 755 nM.
Molecule `CCn1cc(CN2C(=O)C(c3ccccc3)(c3ccccc3)N=C2N)cn1` has an XC50 of 820 nM.
`CCNC(=O)Nc1cccc(-c2cccc(-c3nc4cc(C(F)(F)F)ccc4[nH]3)c2)c1` was tested, and the XC50 was 678 nM.
`CC(C)CCN1CCCN(Cc2cccc(C(=O)Nc3ccc(C(C)(C)C)cc3)c2)CC1` showed an XC50 of 1100 nM.
For `Cc1cccn2c(=O)c3cc(C(=O)NCCN4CCOCC4)c(=N)n(CCc4ccccc4)c3nc12`, the XC50 was 468 nM.
`O=C(NCCCCN1CCC(c2ccc3c(c2OCCN2CCCC2=O)CCCC3)CC1)c1ccc(-c2ccc(C(F)(F)F)cc2)cc1` gave an XC50 of 1520 nM.
Work on `CCN(CC)C(=O)C(=O)c1c[nH]c2ccc(Cl)cc12` yielded an XC50 of 81.1 nM.
For `Cc1ccc(OCC2CCN(c3ncc(C(=O)NC4CC4)cc3Cl)CC2)cc1`, the XC50 was 1090 nM.
`CCCCCCCc1cc(O)c2c(c1)OC(C)(C)c1ccncc1-2` showed an XC50 of 1150 nM.
In the case of `OCc1ccc(-c2cncc(Nc3ccc(F)c(Cl)c3)c2)cc1`, the XC50 is reported as 88.5 nM.
In the case of `COc1ccccc1NC(=O)c1cc(C(=O)c2cc(Cl)ccc2O)cn(-c2ccccc2OC)c1=O`, the XC50 is reported as 943 nM.
In the case of `CS(=O)(=O)Cc1ccc(Nc2nccc(-c3c(-c4cccc(NC(=O)C5CCCCC5)c4)nn4ncccc34)n2)cc1`, the XC50 is reported as 201 nM.
In the case of `N[C@@H](CCN1CCC(c2cccc(O)c2)CC1)Cc1ccc(F)c(F)c1`, the XC50 is reported as 1110 nM.
`CNCc1cccc2nc(-c3csc(Cc4cc(Cl)ccc4OCC(C)C)n3)[nH]c12` gave an XC50 of 718 nM.
Molecule `CCCNCc1ccc(-c2ccc(CN(CCOC)C(=O)CCCOCc3ccccc3)cc2)nc1` has an XC50 of 1160 nM.
In the case of `O=C(Nc1cccc(C(F)(F)F)c1)c1ccc(S(=O)(=O)NCC2CCCN(CC3CCCCC3)C2)cc1` (stereo not given), the XC50 is reported as 899 nM.
`COc1ccc2nccc([C@@H](O)CN3CCC(NCc4cc5ccccc5[nH]4)CC3)c2c1` showed an XC50 of 1100 nM.
Work on `CN(C)c1nc2cc(-n3cnc4cc(-c5ccc(Cl)cc5)sc4c3=O)ccc2n1CCCN1CCCC1` yielded an XC50 of 848 nM.
`COc1cccc(OC2CCN(C(=O)c3ccc(-c4ccc(N5CCCC5=O)cc4C)cc3)CC2)c1` gave an XC50 of 1010 nM.
Molecule `NC(=O)c1cccc(C(=O)Nc2ccc(-c3cccc(-c4nc5cc(C(F)(F)F)ccc5[nH]4)c3)cc2)c1` has an XC50 of 350 nM.
Molecule `O=c1ccc2ccc(F)cc2n1CCN1CCC(NCc2ccc(-c3ccccn3)s2)CC1` has an XC50 of 887 nM.
Molecule `CC(Oc1ccc(Cl)cc1)C(=O)Nc1cc(C(F)(F)F)ccc1N1CCOCC1` (stereo not given) has an XC50 of 532 nM.
`c1ccc(Oc2ccc(Nc3nc(NCCc4c[nH]cn4)nc(NC4CCCC4)n3)cc2)cc1` showed an XC50 of 1030 nM.
With `COc1ccc(N2CCN(CCCCNC(=O)c3ccc(NC(=O)c4ccc(Cl)cc4)cc3)CC2)c(OC)c1` the XC50 was 951 nM.
Molecule `CN(C)CCn1c(N)c(-c2nc3ccccc3s2)c2nc(C#N)c(C#N)nc21` has an XC50 of 1010 nM.
For `COc1ccc(CN(C)CC(O)COc2ccc(NC(=O)c3cccc4c(=O)c5cccc(OC)c5[nH]c34)cc2)cc1OC` (stereo not given), the XC50 was 780 nM.
For `COc1ccc(Nc2nccc(N3CCC(NC(=O)c4cccc(NC(C)=O)c4)C3)n2)cc1` (stereo not given), the XC50 was 994 nM.
With `N#Cc1cccc(NC(=O)c2ccc(S(=O)(=O)NCC3CCCN3CC3CCCCC3)cc2)c1` (stereo not given) the XC50 was 1050 nM.
For `Cc1onc(-c2ccccc2)c1-c1nc(NCc2ccccc2Cl)no1`, the XC50 was 699 nM.
`CC(C)C1C(O)=C(c2ccc3ccccc3c2)C(=O)N1CC1CCCCC1` (stereo not given) gave an XC50 of 1130 nM.
Work on `Nc1ncc(-c2ccc3nccc(-c4ccncc4)c3c2)cc1S(=O)(=O)N1CCCCC1` yielded an XC50 of 581 nM.
Molecule `COc1ccc2[nH]ccc(=NN=Cc3cccc(C)n3)c2c1` has an XC50 of 764 nM.
`c1ccc2ncc(CNCCCCCCCCNCc3cnc4ccccc4c3)cc2c1` showed an XC50 of 846 nM.
For `COc1ccc2nccc([C@H](O)CN3CCC(NCc4ccc5c(c4C)OCCO5)CC3)c2n1`, the XC50 was 886 nM.
`c1ccc(CCNc2nc(NCC(c3ccccc3)c3ccccc3)c3nc[nH]c3n2)cc1` gave an XC50 of 617 nM.
For `CC(=O)Nc1ccccc1OCc1cc2cc(C(=O)N3CCC(N4C(=O)OCc5ccccc54)CC3)ccc2o1`, the XC50 was 236 nM.
Molecule `COc1ccc(C(=O)Nc2ccc(-c3ccc([N+](=O)[O-])cc3)cc2)cc1CCCN(C)C` has an XC50 of 803 nM.
In the case of `CN1CCN(c2ccnc3ccc(NC(=O)Nc4ccc(-c5ccccc5)cc4)cc23)CC1`, the XC50 is reported as 776 nM.
For `FC(F)(F)c1ccc2[nH]c(-c3ccc(-c4ccc(CNCc5cnn(-c6ccccc6)n5)cc4)s3)nc2c1`, the XC50 was 456 nM.
With `Cn1cc(CCNc2ccnc(N3CCC(c4ncc[nH]4)CC3)n2)c2ccccc21` the XC50 was 1200 nM.
For `O=C(Nc1cccc(F)c1)NC1CCN(CCCCCNC(=O)C2CC2c2ccc(Cl)c(Cl)c2)CC1` (stereo not given), the XC50 was 763 nM.
`ON=C1CCc2cc(-c3nc(-c4ccc(OCCN5CCCCC5)cc4)[nH]c3-c3ccncc3)ccc21` gave an XC50 of 804 nM.
For `Cc1[nH]c2ccccc2c1C=NNc1nc(=Nc2ccccc2)[nH]c(=Nc2ccccc2)[nH]1`, the XC50 was 926 nM.
`CCNc1cc(C(=O)N[C@@H](Cc2ccccc2)[C@H](O)CNCc2cccc(OC)c2)c(OC)c(N2CCCCS2(=O)=O)c1` was tested, and the XC50 was 689 nM.
`N#Cc1cccc(Nc2cc(C(F)(F)F)nc(Nc3ccccc3)n2)c1` showed an XC50 of 1440 nM.
`Cc1nc(-c2ccncc2)sc1C(=O)Nc1ccc(Cl)cc1C(=O)Nc1ccc(Cl)cc1` gave an XC50 of 759 nM.
